Experimental data: patent US8604009B2, “(20S)-2-methylene-19-nor-22-dimethyl-1α,25-dihydroxyvitamin D3 and (20R)-2-methylene-19-nor-22-dimethyl-1α,25-hydroxyvitamin D3” (Wisconsin Alumni Research Foundation, priority 2010, dated 2013)
pEC50, pKi: −log10 of the molar value. “Also recorded” adds a separate entry of the source. Read-outs that look alike come from different tables or passages of the source.

Tests used:
[1] = test system: bone calcium mobilization; assay: Bone calcium mobilization (serum calcium); assay type: in vivo, rat; conditions: at 780 pM dosage
Protocol: (§1) Male, weanling Sprague-Dawley rats were placed on Diet 11 (0.47% Ca) diet+AEK oil for one week followed by Diet 11 (0.02% Ca)+AEK oil for 3 weeks. The rats were then switched to a diet containing 0.47% Ca for one week followed by two weeks on a diet containing 0.02% Ca. Dose administration began during the last week on 0.02% calcium diet. Four consecutive intraperitoneal doses were given approximately 24 hours apart. Twenty-four hours after the last dose, blood was collected from the severed neck and the concentration of serum calcium determined as a measure of bone calcium mobilization. The first 10 cm of the intestine was also collected for intestinal calcium transport analysis using the everted gut sac method.

[2] = test system: 24-hydroxylase (24-OHase) gene promoter in ROS 17/2.8 (bone) cells; assay: In vitro transcription assay (24-hydroxylase promoter luciferase reporter); assay type: cell-based
Protocol: Transcription activity was measured in ROS 17/2.8 (bone) cells that were stably transfected with a 24-hydroxylase (24-Ohase) gene promoter upstream of a luciferase reporter gene (Arbour et al., Analytical Biochem. (1998) 255(1):148-154). Cells were given a range of doses. Sixteen hours after dosing the cells were harvested and luciferase activities were measured using a luminometer. RLU=relative luciferase units.

[3] = test system: intestinal calcium transport; assay: Intestinal calcium transport (everted gut sac); assay type: in vivo, rat; conditions: for Net Intestinal Ca2+ Transport (S/M): S/M = serosal Ca2+/mucosal Ca2+, at 780 pM dosage; for intestinal calcium transport activity compared with 1,25(OH)2D3: rat gut, in words
Protocol: as §1

[4] = biological target: T1, full-length recombinant rat vitamin D receptor (Rattus norvegicus, UniProt P13053); assay: Competitive vitamin D receptor binding; conditions: for binding to the nuclear vitamin D receptor compared with 1,25(OH)2D3: in words
T1 construct: Full-length recombinant rat receptor was expressed in E. coli BL21(DE3) Codon Plus RIL cells; histidine tag (C); made in house; host or cells: E. coli BL21(DE3) Codon Plus RIL
T1 sequence (P13053 1-423): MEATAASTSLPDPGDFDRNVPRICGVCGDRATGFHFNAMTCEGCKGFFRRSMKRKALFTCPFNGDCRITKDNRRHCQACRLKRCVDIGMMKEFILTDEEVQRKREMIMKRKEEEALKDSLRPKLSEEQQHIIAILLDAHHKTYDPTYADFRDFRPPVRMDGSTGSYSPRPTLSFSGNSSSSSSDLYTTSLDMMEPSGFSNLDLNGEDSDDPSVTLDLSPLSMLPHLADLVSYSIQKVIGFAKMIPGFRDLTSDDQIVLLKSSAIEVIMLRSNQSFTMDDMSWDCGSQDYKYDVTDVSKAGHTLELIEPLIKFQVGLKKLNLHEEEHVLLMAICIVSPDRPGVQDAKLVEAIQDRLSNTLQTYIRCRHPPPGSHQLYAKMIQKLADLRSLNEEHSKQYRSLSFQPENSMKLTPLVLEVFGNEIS
Protocol: The first system was a nickel affinity resin that utilizes the C-terminal histidine tag on this protein. The protein that was eluted from this resin was further purified using ion exchange chromatography (S-Sepharose Fast Flow). Aliquots of the purified protein were quick frozen in liquid nitrogen and stored at −80° C. until use. For use in binding assays, the protein was diluted in TEDK50 (50 mM Tris, 1.5 mM EDTA, pH 7.4, 5 mM DTT, 150 mM KCl) with 0.1% Chaps detergent. The receptor protein and ligand concentration was optimized such that no more than 20% of the added radiolabeled ligand was bound to the receptor.
Radiolabeled and unlabeled ligands were added to 100 μL of the diluted protein at a final ethanol concentration of ≦10%, mixed and incubated overnight on ice to reach binding equilibrium. The following day, 100 μL of hydroxylapatite slurry (50%) was added to each tube and mixed at 10-minute intervals for 30 minutes. The hydroxylapaptite was collected by centrifugation and then washed three times with Tris-EDTA buffer (50 mM Tris, 1.5 mM EDTA, pH 7.4) containing 0.5% Titron X-100. After the final wash, the pellets were transferred to scintillation vials containing 4 mL of Biosafe II scintillation cocktail, mixed and placed in a scintillation counter. Total binding was determined from the tubes containing only radiolabeled ligand.

HL-60 cells = assay: HL-60 differentiation (nitro blue tetrazolium reduction); assay type: cell-based, human
Protocol: The study drugs were dissolved in ethanol and the concentrations determined using UV spectrophotometry. Serial dilutions were prepared so that a range of drug concentrations could be tested without changing the final concentration of ethanol (≦0.2%) present in the cell cultures.
Human promyelocytic leukemia (HL60) cells were grown in RPMI-1640 medium containing 10% fetal bovine serum. The cells were incubated at 37° C. in the presence of 5% CO2.
HL60 cells were plated at 1.2×10^5 cells/mL. Eighteen hours after plating, cells in duplicate were treated with drug. Four days later, the cells were harvested and a nitro blue tetrazolium reduction assay was performed (Collins et al., J. Exp. Med. (1979) 149:969-974). The percentage of differentiated cells was determined by counting a total of 200 cells and recording the number that contained intracellular black-blue formazan deposits.

[5] = biological target: T1, full-length recombinant rat vitamin D receptor; conditions: data from U.S. Pat. No. 5,843,928 and J. Med. Chem. 1998, 41, 4662; read-out: Competitive VDR Binding (Ki); cited from earlier work
[6] = competition with 3H-1,25(OH)2D3, read-out: Ki, binding to the recombinant vitamin D receptor

Row | pKi [4, 6] | Structure (SMILES) | Net Bone Ca2+ Mobilization [1] [mg/dL] | Net Intestinal Ca2+ Transport (S/M) [3] [S/M] | intestinal calcium transport activity compared with 1,25(OH)2D3 [3] | binding to the nuclear vitamin D receptor compared with 1,25(OH)2D3 [4] | pKi [5] | further results
1 | 10.30 | C=C1C(O)CC(=CC=C2CCCC3(C)C2CCC3C(C)C(C)(C)CCC(C)(C)O)CC1O [MET-2, (20R)-2-methylene-19-nor-22-dimethyl-1α,25-dihydroxyvitamin D3] | 0.2 | 1.2 | noticeably less active than 1,25-(OH)2D3; also recorded: less potent than 1,25(OH)2D3 | equally effective as 1,25-(OH)2D3; also recorded: same affinity as 1,25(OH)2D3 |  | pEC50 ([2]; ROS 17/2.8 cells, 16 hours, read-out: concentration stimulating 24-OHase gene expression in bone cells): 10.52; pEC50 ([2]; present compounds, read-out: 24-OHase Transcription (EC50)): 9.22; potency in 24-hydroxylase gene transcription, times more potent than 1,25(OH)2D3 ([2]; relative to 1,25(OH)2D3): about three; potency in stimulating 24-OHase gene expression, times less potent than 1,25(OH)2D3 ([2]; relative to 1,25(OH)2D3): about 3 times; pKi ([4]; present compounds, read-out: Competitive VDR Binding (Ki)): 10.30; melting point: 154 °C; pEC50 (HL-60 cells; HL-60 cells, 4 days, read-out: concentration inducing the differentiation of HL-60 cells in culture): 9.15; pEC50 (HL-60 cells; Homo sapiens, HL-60, present compounds, read-out: HL-60 Differentiation (EC50)): 9.00
2 |  | C=C1C(O)CC(=CC=C2CCCC3(C)C2CCC3C(C)CCCC(C)(C)O)CC1O [2MD (20R)] |  |  |  |  | 9.92 | 
3 | 10.40 | C=C1C(O)CC(=CC=C2CCCC3(C)C2CCC3C(C)C(C)(C)CCC(C)(C)O)CC1O [MET-1, (20S)-2-methylene-19-nor-22-dimethyl-1α,25-dihydroxyvitamin D3] | 0.4 | 2.3 | noticeably less active than 1,25-(OH)2D3; also recorded: less potent than 1,25(OH)2D3 | approximately equally effective as 1,25-(OH)2D3; also recorded: same affinity as 1,25(OH)2D3 |  | pEC50 ([2]; 16 h, ROS 17/2.8 cells, 16 hours, read-out: concentration stimulating 24-OHase gene expression in bone cells): 10.52; pEC50 (HL-60 cells; Homo sapiens, HL-60, 96 h, HL-60 cells, 4 days, read-out: concentration inducing the differentiation of HL-60 cells in culture): 9.15; pEC50 (HL-60 cells; present compounds, read-out: HL-60 Differentiation (EC50)): 9.15
4 |  | C=C1C(O)CC(=CC=C2CCCC3(C)C2CCC3C(C)CCCC(C)(C)O)CC1O [2MD (20S), 2-methylene-19-nor-1α,25-dihydroxyvitamin D3] |  |  |  |  | 10.00 | 
